Converted amounts (≈) assume the structure as drawn.
What was measured:
[1] = test system: 132 strains of Staphylococcus aureus (106 MRSA and 26 MSSA strains); assay: MIC50/MIC90 micro-broth dilution, all strains
[2] = test system: Staphylococcus aureus ATCC 43300 MRSA; assay: Antibacterial time kill assay; type: cell-based; settings: for MIC: Staphylococcus aureus
Method: The time-kill method is based on CLSI guideline M26-A (NCCLS, 1999).
The collaborator supplied sample as dry material. A stock solution was prepared at 10 mg/mL in neat DMSO (11.2 mg in 1.12 mL of DMSO). The highest concentration tested in the assay was 64 μg/mL and 2% DMSO as a final concentration using 1/20 dilution to achieve these concentrations.
Time kill plates: CBD was plate across all the rows and serially diluted in Cation-adjusted Mueller Hinton Broth (CaMHB; BD, Cat. No. 212322) two-fold across the wells of polystyrene (PS) 96-well plates (Corning; Cat. No. 3370), plated in duplicate. Each row were taken as a time point, where row A, 0 h; row B, 1 h; row C, 2 h; row D, 3 h; row E, 4 h; row F, 6 h and row G, 24 h.
Also, control plates were made. CBD and standard antibiotics were serially diluted in Cation-adjusted Mueller Hinton Broth (CaMHB; BD, Cat. No. 212322) two-fold across the wells of polystyrene (PS) 96-well plates (Corning; Cat. No. 3370), plated in duplicate.
The tested bacteria was Staphylococcus aureus ATCC 43300 MRSA (ID GP_020:02).
Charcoal plate PS 96-well plates: 50 μL of sterile activated charcoal suspension (25 mg/ml) were added into row A. 90 μL of 0.9% sterile saline were added to subsequent rows.
Bacteria (Table 2.6) was cultured in CaMHB at 37° C. overnight, then diluted 40-fold and incubated at 37° C. for a further 2-3 h. The resultant mid-log phase cultures were diluted in CaMHB and added to each well of the control and time kill 96-well plates to give a final cell density of 5×10^5 CFU/mL, and a final compound concentration range of 0.03-64 μg/mL. The plates were covered and incubated at 37° C. for 24 h.
At selected time-points (0, 1, 2, 3, 4, 6 and 24 h), 50 μL of culture per-well was transferred from the time kill plate into the first row of charcoal plate (containing the charcoal suspension) to neutralise the compound. After mixing well, 10 μL were transferred from row A to row B to give a 1:10 dilution, this step was repeated until 1:10'000 (row E). […]
MICs and the time kill results were determined visually at 24 hr incubation. […]

[3] = test system: S. aureus MSSA (26 strains); assay: MIC50/MIC90 micro-broth dilution, MSSA strains; settings: Staphylococcus aureus, MSSA
S. aureus ATCC 43300 = assay: Anaerobic MIC micro-broth dilution; type: cell-based, Staphylococcus aureus; settings: S. aureus ATCC 43300, anaerobic chamber, BHI, 48 h
[4] = test system: S. aureus MRSA (106 strains); assay: MIC50/MIC90 micro-broth dilution, MRSA strains; type: cell-based, Staphylococcus aureus; settings: for Staphylococcus aureus MRSA MIC distribution, number of strains: Table 19
C. granulosum ATCC 25564 = assay: Anaerobic MIC micro-broth dilution; type: cell-based, Cutibacterium granulosum; settings: C. granulosum ATCC 25564, anaerobic chamber, BHI, 48 h
[5] = test system: Staphylococcus aureus ATCC 43300 MRSA; assay: Forced evolution of resistance, 20 days serial passage and drug-free passages; type: cell-based; settings: for MIC: Staphylococcus aureus
Method: The collaborator supplied sample as dry material. A stock solution at 10 mg/mL in neat DMSO was prepared.
The mid log Staphylococcus aureus (ATCC 43300) growth culture was serially diluted and plated on a solid Tryptic Soy Agar (TSA) plates in duplicates and incubated at 37° C. overnight to determine viable colony count.
Staphylococcus aureus (ATCC 43300) was cultured in CaMHB at 37° C. overnight, then diluted 40-fold and incubated at 37° C. for a further 2-3 h. […] The plate was covered and incubated at 37° C. for 20 h.
Plate well with the highest drug concentration that permitted growth was then diluted. Despite plates were read by eye, reading at OD600 on the Epoch microplate spectrophotometer was used to adjust growth density of each well (it was approximately 1:1000). Then, 100 μL of the bacteria diluted was added to the new MIC plate. The OD600 was used to calculate the dilution of cells to a density of 10^6 CFU/mL. Bacteria were diluted in CaMHB and 100 μL was added to each well of the next replicate passage. The final well volume was 200 μL with a cell density of 5×10^5 CFU/mL. Each replicate (row) was assess as different strain, for this reason the dilution was done for each replicate.
Once prepared, the plate was covered and incubated at 37° C. overnight. Plate reading, compound preparation and bacterial preparation were repeated from Day 2 to Day 20.
Depending on the MIC of the day before, CBD tested concentrations were established.
Depending on the MIC of the day before, CBD and daptomycin tested concentrations were established to ensure at least three concentrations above, and three concentrations below MIC, based on the previous MIC results. Compounds were prepared in Protein LoBind Eppendorf 1.5 mL safelock tubes, diluting 320 μg/mL stock in DMSO in CaMHB to achieve two-fold the desired testing concentrations. The 100 μL of the selected concentration were added to each well (See FIG. 1). […] It was incubated at 37° C. overnight. Next day the same procedure was repeated.
Following 20 days of passaging in the presence of CBD and daptomycin, each replicate was passaged for 4 days in drug-free media to assess the stability of any induced resistance.
Day 20 plate was read and the same bacterial preparation methodology was followed. Same concentrations used in day 20 for CBD were used for the 4 days drug free passages. […] These concentrations were used for the 4 days drug free passages. Column 11 was used as the drug-free passage well, and column 12 as a negative growth control with 200 μL uninoculated media in each well. Diluted bacteria were added to the plate, one replicate per row, 100 μL per well. The final well volume was 200 μL with a cell density of 5×10^5 CFU/mL in columns 1-11, and CBD concentration range from 16-0.03 μg/mL in columns 1-10 (FIG. 2).
Subsequent drug-free passage plates were prepared in the same manner, except each replicate bacteria was passaged from column 11, the drug-free growth control well.
Alongside the test plate, a culture of S. aureus was passaged for 24 days without CBD, to establish a baseline for non-selective mutations in the growth conditions described.
Six wells were used as a positive growth controls, and six as negative growth controls with uninoculated media.
Subsequent passages were inoculated from well H7. The bacterial growth in H7 was resuspended by pipetting, then plates were read for optical density by spectrophotometer (Biotek Epoch) at 600 nm (OD600). The OD600 was used to calculate the dilution of cells to a density of 10^6 CFU/mL. Bacteria were diluted in CaMHB and 50 μL was added to each well of the next passage.

[6] = listed as Cannabidiol (Batch 2)

## C=C(C)C1CCC(C)=CC1c1c(O)cc(CCCCC)cc1O (stereo not shown) [Cannabidiol, 2-[3-methyl-6-(1-methylethenyl)-2-cyclohexen-1-yl]-5-pentyl-1,3-benzenediol]
[1]; MIC 0.015 μg/mL
  Staphylococcus aureus spp. MIC distribution, number of strains: 0
[1]; MIC 0.03 μg/mL
  Staphylococcus aureus spp. MIC distribution, number of strains: 0
[1]; MIC 0.06 μg/mL
  Staphylococcus aureus spp. MIC distribution, number of strains: 0
[1]; MIC 0.5 μg/mL
  Staphylococcus aureus spp. MIC distribution, number of strains: 0
[1]; MIC 1 μg/mL
  Staphylococcus aureus spp. MIC distribution, number of strains: 6
[1]; MIC 2 μg/mL
  Staphylococcus aureus spp. MIC distribution, number of strains: 106
[1]; MIC 4 μg/mL
  Staphylococcus aureus spp. MIC distribution, number of strains: 18
[1]; MIC 8 μg/mL
  Staphylococcus aureus spp. MIC distribution, number of strains: 1
[1]; MIC 32 μg/mL
  Staphylococcus aureus spp. MIC distribution, number of strains: 0
[1]; S. aureus spp. ALL
  MIC range: 0.25 to 8 µg/mL
[1]; Staphylococcus aureus
  MIC50: 2 µg/mL (≈ 6.36 µM)
  MIC90: 4 µg/mL (≈ 12.7 µM)
[1]; Staphylococcus aureus, MRSA|MSSA, read-out: MIC across the 132 strains tested
  MIC: 2 to 4 µg/mL (≈ 6.36 to 12.7 µM)
[2]; CaMHB, 24 hr, read-out: CBD control MIC of the day
  MIC: 2 µg/mL
[2]; read-out: previous MIC data
  MIC: 1 to 2 µg/mL (≈ 3.18 to 6.36 µM)
[2]; concentrations over or equal to the MIC value
  treatment time after which bactericidal: 3 h
[3]
  MIC50: 2 µg/mL (≈ 6.36 µM)
  MIC90: 2 µg/mL (≈ 6.36 µM)
S. aureus ATCC 43300; [6]
  MIC: 2/1
S. aureus ATCC 43300; listed as Cannabidiol (CBD)
  MIC: active
[4]; Staphylococcus aureus, S. aureus MRSA, read-out: MIC 50
  MIC50: 2 µg/mL (≈ 6.36 µM)
[4]; Staphylococcus aureus, S. aureus MRSA, read-out: MIC 90
  MIC90: 4 µg/mL (≈ 12.7 µM)
[4]; MIC 0.015
  Staphylococcus aureus MRSA MIC distribution, number of strains: 0
[4]; MIC 0.03
  Staphylococcus aureus MRSA MIC distribution, number of strains: 0
[4]; MIC 0.06
  Staphylococcus aureus MRSA MIC distribution, number of strains: 0
[4]; MIC 0.5
  Staphylococcus aureus MRSA MIC distribution, number of strains: 0
[4]; MIC 1
  Staphylococcus aureus MRSA MIC distribution, number of strains: 4
[4]; MIC 2
  Staphylococcus aureus MRSA MIC distribution, number of strains: 82
[4]; MIC 4
  Staphylococcus aureus MRSA MIC distribution, number of strains: 18
[4]; MIC 8
  Staphylococcus aureus MRSA MIC distribution, number of strains: 1
[4]; MIC 16
  Staphylococcus aureus MRSA MIC distribution, number of strains: 0
[4]; MIC 32
  Staphylococcus aureus MRSA MIC distribution, number of strains: 0
C. granulosum ATCC 25564; [6]
  MIC: 4/2
C. granulosum ATCC 25564; listed as Cannabidiol (CBD)
  MIC: active
[5]; 216 h, read-out: measured MIC on Day 9
  MIC: 1 µg/mL (≈ 3.18 µM)
[5]; 312 h, read-out: MIC of replicate 1 at day 13
  MIC: > 7 µg/mL
[5]; 432 h, read-out: MIC of replicate 1 by day 18
  MIC: > 128 µg/mL
[5]; 480 h, read-out: MIC through the 20 days of assay
  MIC: 2 to 4 µg/mL (≈ 6.36 to 12.7 µM)
[5]; read-out: MIC of replicates 2 and 8 on Days 20 and 21
  MIC: 6 to 16 µg/mL
[5]; replicate 1
  MIC of replicate 1 before the increase: 3.5 µg/mL

Source: patent US20220296535A1, “Antibacterial Dosage Regime Using Cannabinoids” (Botanix Pharmaceuticals Limited, priority 2019, published 2022)
